Results from the NIST ThermoML archive (doi:10.1016/j.jct.2011.12.010).

Assay: molar heat capacity at constant pressure
Settings: 101.33 kPa, Vacuum adiabatic calorimetry

CC(C)(C)Cc1ccccc1 [(2,2-dimethylpropyl)benzene]
molar heat capacity at constant pressure [J/K/mol]
Settings	Crystal	Liquid
146.34 K	124.22	–
148.22 K	125.63	–
150 K	126.5	–
150.12 K	126.88	–
152.5 K	128.37	–
155.37 K	130.04	–
158.24 K	132.28	–
160 K	133.4	–
161.11 K	134.11	–
163.99 K	135.94	–
166.87 K	138.27	–
169.76 K	140.35	–
170 K	140.3	–
172.66 K	141.93	–
175.55 K	144.34	–
178.45 K	146.25	–
180 K	147.4	–
181.36 K	148.33	–
184.27 K	150.32	–
187.18 K	152.57	–
190 K	154.6	–
190.11 K	154.9	–
194.33 K	157.56	–
197.18 K	160.05	–
200 K	162	–
200.37 K	162.3	–
203.56 K	164.63	–
206.46 K	166.79	–
209.27 K	168.78	–
210 K	169.1	–
212.11 K	170.36	–
215.02 K	172.52	–
217.92 K	174.27	–
220 K	175.9	–
220.82 K	176.51	–
223.7 K	178.18	–
226.59 K	180.26	–
229.46 K	182.33	–
230 K	182.6	–
232.33 K	184.33	–
235.2 K	186.58	–
238.05 K	188.32	–
239.91 K	189.73	–
240 K	189.4	–
240.89 K	190.48	–
240.92 K	190.57	–
241.92 K	190.98	–
242.92 K	191.9	–
243.72 K	192.4	–
243.92 K	192.73	–
244.93 K	193.73	–
246 K	195.64	–
246.56 K	197.88	–
246.6 K	202.12	–
247.1 K	197.38	–
248.19 K	200.88	–
249.28 K	206.03	–
249.34 K	207.61	–
250 K	196.1	–
250.36 K	213.26	–
251.42 K	222.66	–
252.01 K	245.27	–
252.39 K	417.05	–
252.46 K	249.27	–
253.4 K	315.03	–
254.15 K	685.44	–
254.18 K	538.11	–
254.69 K	1232.2	–
254.95 K	2919.2	–
255.01 K	4462.3	–
255.06 K	8092.4	–
255.09 K	5555.7	–
255.17 K	8555.5	–
255.21 K	9885.8	–
255.43 K	199.7	249.6
256.43 K	–	250.01
257.37 K	–	252.18
257.44 K	–	250.6
258.44 K	–	251.09
258.78 K	–	252.09
259.45 K	–	251.68
260 K	–	252
260.46 K	–	252.26
261.48 K	–	252.92
262.48 K	–	253.42
263.49 K	–	254
264.48 K	–	254.59
264.99 K	–	254.92
265.49 K	–	255.09
266.49 K	–	255.67
267.49 K	–	256
268.67 K	–	256.58
270 K	–	257.2
271.15 K	–	257.83
277.28 K	–	260.82
280 K	–	262.5
283.39 K	–	264.31
289.47 K	–	267.64
290 K	–	268
295.52 K	–	270.8
298.15 K	–	271.9
300 K	–	272.6
300.23 K	–	272.71
300.79 K	–	273.13
301.54 K	–	273.46
304.11 K	–	274.29
304.68 K	–	274.54
307.54 K	–	275.37
307.98 K	–	275.62
308.57 K	–	275.71
310 K	–	276.3
311.84 K	–	276.95
312.43 K	–	277.2
313.51 K	–	277.62
315.67 K	–	278.2
316.31 K	–	278.53
319.32 K	–	279.36
319.51 K	–	279.86
320 K	–	279.8
320.02 K	–	279.95
323.33 K	–	281.36
323.89 K	–	281.44
325.26 K	–	281.86
327.15 K	–	283.02
327.74 K	–	283.02
330 K	–	284.4
330.95 K	–	285.27
331.19 K	–	285.18
331.59 K	–	285.27
334.56 K	–	287.35
335.41 K	–	288.01
337.07 K	–	289.09
338.32 K	–	289.92
339.23 K	–	290.51
340 K	–	290.8
342.07 K	–	292.33
342.92 K	–	292.67
343.02 K	–	292.75
345.8 K	–	294.83
346.79 K	–	295.24
348.74 K	–	295.99
349.52 K	–	296.82
350 K	–	297
350.54 K	–	297.49
